Experimental data: US20010044151A1, “Ligands for modulating the expression of exogenous genes via an ecdysone receptor complex” (priority 1998, published 2001)

Molecular target: T1, VgEcR and RXR heterodimeric receptor (pVgRXR) with pIND/LacZ(SPI) in CHO cells (Drosophila melanogaster, UniProt P34021, E282G/G283S/G286V)
T1 construct: host or cells: CHO cells (ATCC CCL-61), transiently transfected or stably transformed with pVgRXR
T1 sequence (P34021 1-878 E282G/G283S/G286V): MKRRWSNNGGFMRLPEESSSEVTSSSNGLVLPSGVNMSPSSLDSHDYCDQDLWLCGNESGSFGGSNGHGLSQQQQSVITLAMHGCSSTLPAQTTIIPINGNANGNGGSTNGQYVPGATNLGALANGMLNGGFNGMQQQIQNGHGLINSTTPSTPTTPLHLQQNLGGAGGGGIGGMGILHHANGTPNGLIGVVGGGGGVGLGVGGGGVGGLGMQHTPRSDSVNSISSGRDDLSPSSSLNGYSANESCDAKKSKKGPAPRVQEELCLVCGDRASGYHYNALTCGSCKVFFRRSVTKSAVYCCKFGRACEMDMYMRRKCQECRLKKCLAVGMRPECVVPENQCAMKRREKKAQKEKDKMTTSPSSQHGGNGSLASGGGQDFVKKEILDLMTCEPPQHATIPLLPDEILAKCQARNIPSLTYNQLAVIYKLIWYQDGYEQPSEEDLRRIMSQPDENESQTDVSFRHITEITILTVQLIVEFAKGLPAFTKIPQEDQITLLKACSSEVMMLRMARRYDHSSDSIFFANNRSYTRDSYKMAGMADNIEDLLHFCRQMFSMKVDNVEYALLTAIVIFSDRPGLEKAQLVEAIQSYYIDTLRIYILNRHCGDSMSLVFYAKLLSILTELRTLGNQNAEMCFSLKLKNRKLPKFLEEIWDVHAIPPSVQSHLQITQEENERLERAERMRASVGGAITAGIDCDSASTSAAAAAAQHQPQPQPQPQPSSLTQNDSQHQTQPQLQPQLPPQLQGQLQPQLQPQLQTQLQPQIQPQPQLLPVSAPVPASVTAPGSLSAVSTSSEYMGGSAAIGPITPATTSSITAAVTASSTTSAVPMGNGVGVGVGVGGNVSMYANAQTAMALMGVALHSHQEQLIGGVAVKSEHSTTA
T1 sequence (P19793 1-462 partner): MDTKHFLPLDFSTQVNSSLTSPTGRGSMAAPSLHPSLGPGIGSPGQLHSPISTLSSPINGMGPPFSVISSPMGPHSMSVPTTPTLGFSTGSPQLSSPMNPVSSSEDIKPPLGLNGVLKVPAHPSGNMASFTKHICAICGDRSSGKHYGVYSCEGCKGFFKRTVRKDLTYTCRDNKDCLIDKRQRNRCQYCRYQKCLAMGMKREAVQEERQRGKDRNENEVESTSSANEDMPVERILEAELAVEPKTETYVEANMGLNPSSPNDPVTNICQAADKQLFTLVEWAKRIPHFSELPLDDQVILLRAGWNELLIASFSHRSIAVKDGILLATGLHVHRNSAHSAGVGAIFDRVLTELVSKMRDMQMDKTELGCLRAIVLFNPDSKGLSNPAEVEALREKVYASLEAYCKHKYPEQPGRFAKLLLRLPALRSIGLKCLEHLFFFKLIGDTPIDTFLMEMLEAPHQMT
Assay: β-Galactosidase gene activation in stably transformed CHO cells
Assay type: cell-based
Settings: ligand 10 μM; for β-Galactosidase activity: average of triplicate samples, no ligand = 200; for Induction Ratio (RLU in presence and absence of the ligand): β-galactosidase
From the text: pVgRXR (Invitrogen Corp., Carlsbad, Calif.) is an […] plasmid that expresses both VgEcR and RXR to form a modified heterodimeric nuclear receptor (see No, D., et. al., (1996) Proc. Natl. Acad. Sci. USA, 93, 3346-3351). The ecdysone receptor (VgEcR) is derived from the natural Drosophila ecdysone receptor and modified to contain the VP16 transactivation domain (see Cress, W. D., and Triezenberg, S. J. (1991), Science 251, 87-90; Sadowski, I., et. al (1988) Nature 335, 563-564; Triezenberg, S. J et. al., (1988), Genes Dev 2, 718-729; Triezenberg, S. J., et. al., (1988), Genes Dev 2, 730-742). RXR as the mammalian homologue of USP (ultraspiracle), the natural partner to the Drosophila ecdysone receptor (see Yao, T. -P., et. al., (1993), Nature 366, 476-479, Yao, T. -P., et. al., (1992), Cell 71, 63-72). The P-box region of the VgEcR DNA binding domain was modified to recognize the hybrid ecdysone response element that consists of one half-site from the gluccorticoid response element (see Umesono, K., and Evans, R. M. (1989), Cell 57, 1139-1146) and one half-site from the natural ecdysone response element. This hybrid response element reduces any possible interaction with the farsenoid X receptor that may bind the natural ecdysone responsive element (EcRE). The cytomegalovirus enhancer-promoter drives expression of VgEcR, and the Rous sarcoma virus promoter drives expression of RXR. The vector pIND (Invitrogen Corp) is a 5024 bp vector based on pcDNA3.1. It contains five hybrid E/GREs recognized by the modified ecdysone receptor expressed from pVgRXR and a minimal heat shock promoter (see Yao, T. P., et. al., (1993), Nature, 366, 476-479). pIND/lacZ (Invitrogen Crop.) is a 8170 bp plasmid that contains the β-galactosidase gene as a reporter enzyme. Cotransfection of pIND/lacZ and pVgRXR results in the induction of β-galactosidase expression upon addition of ecdysone agonists such as muristerone A. The reporter plasmid pIND/luc was constructed by subcloning the firefly luciferase gene from pGL3 (Promega/E1741) as a Nhe I-BamHI fragment into pIND, also digested with Nhe I and BamHI.
CHO cells stably transformed with pVgRXR and pIND/LacZ(SPI) (Invitrogen Crop.) were maintained in Hams F-12 media containing 10% FBS, 2 mM glutamine, 300 μg/ml Zeocin (Invitrogen Crop.) and 300 μg/ml Hygromycin B. pIND(SPI), an alternative to the pIND vector, can be induced to absolute expression levels five-fold greater than that of pIND due to the presence of 3 cis-acting SPI elements. Basal expression levels are correspondingly greater.
Stock solutions (10^−2 M) were prepared for muristerone A and the non-steroidal ligands of the present invention in ethanol and acetone respectively, and stored at −20° C. Twenty-four hours after transfection, a test compound was added at a final concentration of 10 μM (10^−5 M) to each 1 ml cell culture well. Muristerone A (Sigma, M7888) at 10 μM concentration was used as a positive control. Acetone alone was added as a negative control.
Reporter gene expression was evaluated 24-48 hours after treatment of transiently transfected cells or 24 hours after treatment of the stably transformed cell line with test ligands. β-galactosidase was assayed by either staining fixed cells or assaying for enzymatic activity in cellular lysates. β-galactosidase catalyzes the hydrolysis of the β-galactoside, X-gal (5-bromo-4-chloro-3-indolyl-β-galactopyranoside) producing a blue color within the fixed cells (Invitrogen, K1465-01) that can be visualized under a microscope. Alternatively, reporter lysis buffer (RLB; Promega/E397A) was used to lyse the cells for the detection of β-galactosidase activity using a chemiluminescent substrate, Galacto-Star (Tropix/BM100S). The cells within each 12-well plate were lysed with 250 μl of RLB. Twenty μl of each extract was assayed with 100 μl of substrate. […]

| SMILES | β-Galactosidase activity | Induction Ratio (RLU in presence and absence of the ligand) |
| --- | --- | --- |
| CC(C)CC[C@@H](O)[C@](C)(O)[C@H]1CC[C@@]2(O)C3=CC(=O)[C@]4(O)C[C@@H](O)[C@@H](O)C[C@]4(C)[C@H]3[C@H](O)C[C@]12C [CE-3, muristerone A, reference compound] | 9830 RLU | 49 |
| CCc1c(OC)cccc1C(=O)NN(C(=O)c1cccc(OC)c1)C(C)(C)C [Ligand 1] | 1123 RLU | 6 |
| CC(C)CC[C@@H](O)[C@](C)(O)[C@H]1CC[C@@]2(O)C3=CC(=O)[C@@H]4C[C@@H](O)[C@@H](O)C[C@]4(C)[C@H]3CC[C@]12C [CE-4, ponasterone A, reference compound] | 10386 RLU | 52 |
| CC(C)(C)N(NC(=O)c1ccccc1)C(=O)c1ccccc1 [CE-2, 1,2-dibenzoyl-1-tert-butyl-hydrazine, reference compound] | 145 RLU | 1 |
| CCc1c(OC)cccc1C(=O)NN(C(=O)c1cc(F)cc(F)c1)C(C)(C)C [Ligand 4] | 1963 RLU | 10 |
| CCOc1cccc(C(=O)NN(C(=O)c2cc(C)cc(C)c2)C(C)(C)C)c1CC [Ligand 12] | 9830 RLU | 49 |
| CCc1c(OC)cccc1C(=O)NN(C(=O)c1cc(Cl)cc(Cl)c1)C(C)(C)C [Ligand 13] | 6667 RLU | 33 |
| COc1cccc(C(=O)NN(C(=O)c2cc(C)cc(C)c2)C(C)(C)C)c1C [Ligand 3] | 681 RLU | 3 |
| CCc1ccc(C(=O)NN(C(=O)c2cc(C)cc(C)c2)C(C)(C)C)cc1 [CE-1, N-(4-ethylbenzoyl)-N′-(3,5-dimethylbenzoyl)-N′-tert-butyl-hydrazine, reference compound] | 323 RLU | 2 |
| CCc1c(OC)cccc1C(=O)NN(C(=O)c1cc(C)cc(C)c1)C(C)(C)C [Ligand 5] | 11599 RLU | 58 |
| Cc1cc(C)cc(C(=O)N(NC(=O)c2ccc3c(c2C)OCCO3)C(C)(C)C)c1 [Ligand 2] | 536 RLU | 3 |
